Assay results reported in patent EP0619818B1, “IMIDAZOYLALKYL SUBSTITUTED WITH A SIX MEMBERED NITROGEN CONTAINING HETEROCYCLIC RING” (SCHERING CORPORATION, priority 1991, dated 1993).

Target: H3 receptors (Cavia porcellus, UniProt Q9JI35)
Experiment: H3 Receptor Binding Assay
Details: guinea pig brain membranes; 3 nM [3H]R-α-methylhistamine or [3H]-N-methylhistamine; 30° for 30 min; 50 mM Tris, pH 7.5

Chain of H3 receptors (Q9JI35 whole entry): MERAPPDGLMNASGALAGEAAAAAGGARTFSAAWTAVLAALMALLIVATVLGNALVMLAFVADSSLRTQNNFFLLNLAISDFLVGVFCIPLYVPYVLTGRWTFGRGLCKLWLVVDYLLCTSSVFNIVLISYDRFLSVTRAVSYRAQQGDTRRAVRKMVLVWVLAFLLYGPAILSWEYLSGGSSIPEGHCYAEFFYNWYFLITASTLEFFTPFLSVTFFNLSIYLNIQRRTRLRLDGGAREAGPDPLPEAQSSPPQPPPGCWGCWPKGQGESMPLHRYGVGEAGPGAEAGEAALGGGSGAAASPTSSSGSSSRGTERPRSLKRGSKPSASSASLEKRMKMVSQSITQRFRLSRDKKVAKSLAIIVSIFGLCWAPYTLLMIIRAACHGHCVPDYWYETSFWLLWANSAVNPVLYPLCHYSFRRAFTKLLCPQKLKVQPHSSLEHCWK

Ki | SMILES
0.19 µM | CN1CCCC(Cc2c[nH]cn2)C1 (centres unmarked) [Compound 6.2]
0.0003 µM | c1nc(CC2CCNCC2)c[nH]1 [Compound 7.3]
